Key:
Type in all cases: in vivo, mouse
[1] = system: normal mice; test: Morris water maze memory test
Method: This test was carried out in normal mice using a Morris water maze.

[2] = system: formalin-injected mice; test: Formalin test (intraplantar formalin, paw licking, paw edema)
Method: A formalin test was carried out in an open plexiglas cage, with a mirror placed at a 45° angle behind the cage to allow an unobstructed view of the paws. Mice were allowed to acclimate for 15 min in the test cage prior to injection. Each animal was injected intraplantar with 20 μl of 2.5% formalin to the right hindpaw. Each mouse was then immediately placed in the test cage. Up to two mice at one time were observed during 0 to 5 min after injection (phase 1) and during 20-45 min post injection (phase 2). The period between the two phases of nociceptive responding is generally considered to be a phase of weak activity. The amount of time spent licking the injected paw was recorded with a digital stopwatch.
Further, the antinociceptive activity of drugs in phase II of the formalin test and their anti-allodynic response in the CCI model was tested. Mice received vehicle or methyllycaconatine (MLA, 10 mg/kg) prior to vehicle or an ED84 dose of the ago-PAM/PAM (determined from a dose-response experiment using the formalin intraplantar injection model). […] The MLA results were confirmed by testing the ED84 dose of the test compounds in the alpha-7 KO and wild type mice. Finally, it was tested whether tolerance develops to the antinociceptive effects of alpha-7 nAChR ago-PAM following 7 days of repeated injections of its ED84 dose. Mice were given the following treatments: vehicle (7 days of vehicle administration); acute alpha-7 nAChR test compounds (6 days of vehicle administration followed by alpha-7 nAChR ago-PAM on the last day); and repeated alpha-7 nAChR test compounds (7 days of alpha-7 nAChR PAM or ago-PAM).

[3] = system: CCI mice; test: Chronic constriction injury (CCI) model, mechanical allodynia (von Frey)
Method: Mice were anesthetized with pentobarbital (45 mg/kg, i.p.). An incision was made just below the hipbone, parallel to the sciatic nerve. The right common sciatic nerve was exposed at the level proximal to the sciatic trifurcation, and a nerve segment 3-5 mm long was separated from surrounding connective tissue. Two loose ligatures with 6-0 silk suture were made around the nerve with a 1.0-1.5 mm interval between them. Muscles were closed with suture thread and the wound with wound clips. […] Any suture that remained after two weeks was removed from the healed surgical wound. Mechanical allodynia (von Frey test) was measured before and after drug injections.
The antiallodynic effects of test compounds were assessed in three experiments consisting of CCI mice and sham control mice. […] The anti-allodynic effects of alpha-7 nAChRs PAMs and ago-PAMs were tested (four doses and vehicle control, N=10 mice/group, administered i.p.) in the CCI model. Mice were assessed for mechanical allodynia 2 weeks after the CCI surgery. All these studies will be conducted in blinded manner. CCI and sham control mice received two conditioning sessions per day (vehicle in the morning and drug in the afternoon) over the course of 3 days, and were tested for a place preference on day 7 without any injections.
Pain behavioral data are presented as mean±S.E.M. (see FIGS. 5A and 5B). Statistical analysis was performed using the t-test or two-way analysis of variance test, followed by the post-hoc Bonferroni's test. All differences were considered significant at p<0.05, and significant differences are shown with asterisks in FIGS. 5A and 5B. ED50 values with 95% confidence limits (CL) were calculated by unweighted least-squares linear regression.

[4] = system: CFA-injected mice; test: Complete Freund's Adjuvant test (mechanical allodynia, thermal hyperalgesia)
Method: Mice were injected with 20 μl of CFA (0.5 mg/ml of heat killed Mycobacterium tuberculosis, Sigma) in the intraplantar region of the right hindpaw. Paw diameter and thermal hyperalgesia (see paw withdrawal test) were measured 3 days after CFA injection. In separate groups of mice that received CFA, mechanical allodynia thresholds were determined according to previously published method (Ondachi et. al. J Med Chem. 2014 Feb. 13; 57(3):836-48. doi: 10.1021/jm401602p). Mice were placed in a plexiglas cage with mesh metal flooring and allowed to acclimate for 30 min before testing. A series of calibrated von Frey filaments (Stoelting, Wood Dale, Ill.) with logarithmically incremental stiffness ranging from 2.83 to 5.88 expressed as log 10 of [10 £ force in (mg)] were applied to the paw with a modified up-down method. In the absence of a paw withdrawal response to the initially selected filament, a thicker filament corresponding to a stronger stimulus was presented. In the event of paw withdrawal, the next weaker stimulus was chosen. Each hair was presented perpendicularly against the paw, with sufficient force to cause slight bending, and held 2-3 s. The stimulation of the same intensity was applied 5 times to the hindpaw at intervals of a few seconds. Three or more responses out of five stimulations were coded as a positive response. Once a positive response was detected, sequentially lower weight filaments were used to assess the sensory threshold for each paw. The allodynia scores were recorded in a blinded fashion.
A similar sequence of drug treatment described for the formalin testing was used to test the antinociceptive effects of alpha-7 nAChRs ago-PAMs in the CFA model of inflammatory pain. […] Paw diameter and mechanical allodynia will be measured 3 days after CFA injection. We assessed the dose-response relationship of […]7 nAChRs ago-PAMs (4 doses) in reversing CFA-induced mechanical allodynia and paw edema.

NS(=O)(=O)c1ccc2c(c1)[C@H]1C=CC[C@H]1[C@@H](c1ccc(Br)cc1)N2 [Compound 1, (3aR,4S,9bS)-4-(4-bromophenyl)-3a,4,5,9b-tetrahydro-3H-cyclopenta[c]quinoline-8-sulfonamide]
memory defects in scopolamine-treated mice ([1]; FIG. 6): dose dependently reversed the memory defects
latency to find the platform, compound given alone ([1]; normal mice): reduced the latency for the mice to find the platform
activity in alpha-7 nAChR knockout mice ([2]; FIG. 3D): inactive
effect of GAT107 after MLA ([2]; MLA 10 mg/kg prior, FIG. 3C): reversed the effects of GAT107
nociceptive behavior of formalin phase II ([2]; given i.v., FIG. 3A): dose-dependently and significantly block the nociceptive behavior of formalin phase II
nociceptive behavior of formalin phase II ([2]; given orally, FIG. 3B): dose-dependently and significantly block the nociceptive behavior of formalin phase II
paw edema induced by formalin intraplantar injection ([2]; mouse, in vivo): reduced the paw edema
anti-allodynic effect in CCI mice ([3]; i.p., FIG. 5A): significant anti-allodynic effect
effect on sham mice ([3]; sham control mice): no effect on sham mice
antiallodynic and antihyperalgesic effects after MLA ([4]; data not shown): MLA blocked the effects
duration of antiallodynic effect ([4]; i.p., dose dependent): 180 min
duration of antihyperalgesic effect ([4]; mouse, in vivo): 60 min

Reference: patent US11299496B2, “Ligands for alpha-7 nicotinic acetylcholine receptors and methods of treating neurological and inflammatory conditions” (Northeastern University, priority 2014, dated 2022)
